Results from patent publication US20200392223A1, “IL-17A ACTIVITY INHIBITOR AND USE THEREOF” (TOKAI UNIVERSITY EDUCATIONAL SYSTEM, priority 2018, published 2020).

What was measured:
[1] = system: rat nucleus pulposus (NP) cell; test: mRNA expression (real time RT-PCR) in rat NP cells treated with IL-17A under 1% oxygen; assay type: cell-based; details: 24 hours
Protocol: Nucleus pulposus cells were separated from a Sprague Dawley rat aged 11 weeks according to a method in Risbud et al (Journal of cellular biochemistry 98, 152-159, 2006; doi:10.1002/jcb.20765). In short, lumbar and coccygeal intervertebral discs of a deeply anesthetized rat were dissected under an aseptic condition, gel-like nucleus pulposus was separated from intervertebral disc annulus fibrosus (AF), the nucleus pulposus was minced and pipetted, and then the nucleus pulposus was cultured in a Dulbecco's Modified Eagle Medium (DMEM) in which 20% FBS and antibiotics were added at 20% O2, 5% CO2, and 37° C. for about 1 to 2 weeks, and then was cultured in DMEM in which 10% FBS and antibiotics were added for about 1 to 2 weeks.
The cultured rat nucleus pulposus cells were treated with 20 or 50 ng/mL of recombinant mouse IL-17A (Pepro Tech Inc., USA, #210-17) for 24 hours, expression levels of mRNAs of IL-6, COX-2, mPGES1, MMP-3, and MMP-13 were determined by real time RT-PCR according to the following procedure. Total RNA was extracted from the nucleus pulposus cells using an RNAeasy mini-column (Qiagen, Germany). Before elution from the column, RNA was treated with RNase-Free DNase I (Qiagen, Germany). The purified DNA-free RNA was transformed into cDNA using a High Capacity cDNA Reverse Transcription Kit (Applied Biosystems, USA). Template cDNA and a primer specific to each gene were added to Power SYBR Green master mix (Applied Biosystems) and an expression level of mRNA of each gene was determined using Step One Plus Real-time PCR System (Applied Biosystems). The expression level was normalized to β actin. It was verified by melting curve analysis that RT-PCR was specific and a primer dimer was not formed. […]
In (B) and (C), among the compounds of the present invention, only the compound (3) which is considered from the results of (A) described below to have the highest effect on IL-6 and COX-2 was used.
A p38 phosphorylation inhibitor “SB203580” with a concentration of 10 μM, a JNK phosphorylation inhibitor “SP600125” with a concentration of 10 μM, or an ERK phosphorylation inhibitor “PD98059” with a concentration of 10 μM was administered to rat NP cells together with recombinant mouse IL-17A with a concentration of 50 ng/ml, or alternatively, these inhibitors were not administered, and the cells were cultured under a 1% oxygen condition for 24 hours, and an expression level of mRNA of each of COX-2 and IL-6 was determined by real time RT-PCR according to the same procedure as that of [Reference Example 2]. […]

p38 = test: Phosphorylation of MAPK factors (western blotting) in rat NP cells treated with IL-17A; assay type: cell-based; details: 50 μg/ml + IL-17A 50 ng/ml, 1% oxygen
Protocol: In rat nucleus pulposus cells subjected to treatment for 24 hours in 50 ng/mL of IL-17A in which the most remarkable increases of IL-6 and COX-2 were observed, an expression level of a protein of each of IL-6 and COX-2, and β actin used as a control was determined by western blotting according to the following procedure. The nucleus pulposus cells were placed on ice and then washed with ice-cold PBS. In order to prepare total cell proteins, the cells were lysed with a lysis buffer containing 10 mM Tris-HCl (pH 7.6), 50 mM NaCl, 5 mM EDTA, 1% Nonidet P-40, a complete protease inhibitor cocktail (Roche AG, USA), 1 mM NaF, and 1 mM Na3VO4. The proteins were fractionated by SDS-PAGE and transferred onto Immobilon-P polyvinylidene difluoride membrane (Millipore Corporation, USA). […] Western blotting data were quantified by densitometric scanning of a film using Macintosh computer software “CS Analyzer” (ATTO Corporation, Japan). […]
It is reported that IL-17A is likely to be involved in the expression of COX-2 through a MAPK pathway. Involvement of IL-17A in MAPK factors (p38, JNK, and ERK) with respect to the expression of each of COX-2 and IL-6, and influence of the compound (1) of the present invention on these MAPK factors were evaluated by the following method. […]

[2] = system: mouse psoriasis skin model; test: Mouse psoriasis skin model (imiquimod cream); assay type: in vivo
Protocol: About 1×1.5 cm of back of 10-week-old male BJ6J mouse was shaved, and imiquimod (IMQ, a drug causing psoriasis-like dermatitis in a mouse) cream was applied every day from day 1 to day 4. From the 5th day (day 5) after the first IMQ cream application, 6 to 8 hours after the application of the IMQ cream, a DMSO solution containing 1 mg of the compound (3) (database registration name: STK630921) was applied (STK group=compound (3) treated group). The same IMQ cream and the solution of the compound (3) were applied every day from the 6th day (day 6) to the 9th day (day 9). […]
On the 10th day (day 10), skin of the mice in each of the STK group, the Sham group, the IMQ group, and the normal group was collected, and one sample obtained by hematoxylin eosin (HE) staining and one sample obtained by immunofluorescence staining using an anti-CXCL1 antibody were prepared per mouse. In the HE stained samples, for each sample, a thickness of an epidermis layer was measured at two or more locations with the same magnification field of view, and an average value was statistically analyzed (significant difference: p<0.05, n=3).

[3] = system: rat intervertebral disc degeneration model; test: Rat intervertebral disc degeneration model; assay type: in vivo; details: 1 mg in 10 μL DMSO injected into degenerated disc on day 14, evaluated day 28
Protocol: A 23G needle was inserted into a caudal intervertebral disc of a 11-weeks-old male SD rat (weight: 300 to 350 g) by about 5 mm, rotated at 360°, and left for 30 seconds to cause intervertebral disc degeneration (day 0). 14 days (day 14) after being subjected to the intervertebral disc degeneration, 10 μL of a DMSO solution containing 1 mg of the compound (3) (database registration number: STK630921) was injected to the degenerated intervertebral disc (STK group=compound (3) treated group). […]
28 days (day 28) after being subjected to the intervertebral disc degeneration, the caudal vertebrae of the rats in the STK group, the Sham group, the degeneration group, and the normal group were collected, fixed in 4% PFA, and decalcified, thereby preparing sample sections. […] In each sample subjected to the immunostaining, the number of IL-6 positive cells in spots of the same area arbitrarily set at 3 or 4 locations in the intervertebral disc tissue was counted with the same magnification field of view, and an expression rate of the IL-6 positive cells with respect to a total number of cells in the same spot was calculated.

[4] = compound 50 μg/ml + IL-17A 50 ng/ml, vs IL-17A only
[5] = inhibitor 10 μM + IL-17A 50 ng/ml

| SMILES | expression level of mRNA of COX-2 [1, 4] | expression level of mRNA of IL-6 [1, 4] | expression level of mRNA of MMP-3 [1, 4] | expression level of mRNA of MMP-13 [1, 4] | expression level of mRNA of mPGES1 [1, 4] | other results |
| --- | --- | --- | --- | --- | --- | --- |
| C=C(C)COc1ccc2c(C)c(CC(=O)N(C)C[C@H](O)[C@H](O)[C@H](O)[C@H](O)CO)c(=O)oc2c1C [(11)] | significantly reduced | significantly reduced | significantly reduced | significantly reduced | significantly reduced |  |
| C[C@H](NC(=O)Cc1nnc(O)c2ccccc12)C(=O)NCC1CCC(C(=O)O)CC1 (some centres unmarked) [(1)] | excellent in the action |  |  |  |  | phosphorylation of p38 (p38; 15 minutes): reduced; phosphorylation of p38 (p38; 30 minutes, vs IL-17A single administration group): significant reduction |
| CC(C)NC(=O)CCCCn1c(=O)c2ccccc2n(CC(=O)Nc2ccc3c(c2)OCO3)c1=O [(9)] |  | significantly reduced |  |  |  |  |
| COc1cccc(-c2cc(=O)c3ccccc3o2)c1N [PD, PD98059, reference compound] |  |  |  |  |  | expression level of mRNA of COX-2 [1, 5]: significantly suppressed; expression level of mRNA of IL-6 [1, 5]: significantly suppressed |
| CC(NC(=O)Cc1nnc(O)c2ccccc12)C(=O)NCC1CCC(C(=O)O)CC1 (centres unmarked) [(3)] | remarkably reduced | remarkably reduced | significantly reduced | significantly reduced | significantly reduced | thickness of the epidermis layer ([2]; DMSO solution containing 1 mg applied day 5 to day 9, skin collected day 10, HE staining): significantly reduced; expression of CXCL1 ([2]; DMSO solution containing 1 mg applied day 5 to day 9, skin collected day 10, immunofluorescence area): significantly reduced; expression rate of the IL-6 positive cells [3]: significantly reduced |
| COc1ccc(C[C@@]2(C)NC(=O)N(CC(=O)Nc3ccc(N4CCCC4=O)cc3)C2=O)cc1OC [(5)] | significantly reduced | significantly reduced | significantly reduced | significantly reduced | significantly reduced |  |
| C[S+]([O-])c1ccc(-c2nc(-c3ccncc3)c(-c3ccc(F)cc3)[nH]2)cc1 (centres unmarked) [SB, SB203580, reference compound] |  |  |  |  |  | expression level of mRNA of COX-2 [1, 5]: significantly suppressed; expression level of mRNA of IL-6 [1, 5]: significantly suppressed |
